Reference: patent US6762188B1, “Pharmaceutically active benzoquinazoline compounds” (SmithKline Beecham Corporation, priority 1990, dated 2004)

Each molecule was assayed against T1, Mammalian Thymidylate Synthase (Homo sapiens, UniProt P04818) (assay: Thymidylate synthase inhibition, tritium release assay). Details: not given.
T1 construct: made in house; host or cells: Escherichia coli
Format: biochemical

T1 sequence (P04818 whole entry): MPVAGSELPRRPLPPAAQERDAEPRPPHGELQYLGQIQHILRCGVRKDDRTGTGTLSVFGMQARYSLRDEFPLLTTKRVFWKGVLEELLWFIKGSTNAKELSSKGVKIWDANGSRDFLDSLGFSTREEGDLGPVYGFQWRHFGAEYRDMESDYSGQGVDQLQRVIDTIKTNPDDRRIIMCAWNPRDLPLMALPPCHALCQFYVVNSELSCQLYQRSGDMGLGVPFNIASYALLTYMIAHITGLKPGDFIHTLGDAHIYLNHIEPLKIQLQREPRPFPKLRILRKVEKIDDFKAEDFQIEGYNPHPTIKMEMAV

Row | IC50 | SMILES
1 | 1000 to 300000 nM | COc1ccc2ccc3nc(N)[nH]c(=O)c3c2c1 [3-Amino-9-methoxybenzo(f)quinazolin-1(2H)-one]
2 | < 1000 nM | Nc1nc(O)c2c(ccc3ccc(I)cc32)n1 [3-Amino-9-iodobenzo(f)quinazolin-1(2H)-one]
3 | < 1000 nM | Cc1nc2ccc3ccc(S(=O)(=O)Nc4ccc(C(=O)N[C@@H](CCC(=O)O)C(=O)O)cc4)cc3c2c(=O)[nH]1 [N-(4-((1,2-Dihydro-3-methyl-1-oxabenzo(f)quinazolin-9-yl)sulfonamido)benzoyl)-L-glutamic acid]
4 | < 1000 nM | Nc1nc(O)c2c(ccc3cc(N)c(Br)cc32)n1 [3,8-Diamino-9-bromobenzo(f)quinazolin-1(2H)-one]
5 | < 1000 nM | Nc1nc2ccc3cc(Cl)c(Cl)cc3c2c(=O)[nH]1 [3-Amino-8,9-dichlorobenzo(f)quinazolin-1(2H)-one]
6 | < 1000 nM | Nc1nc(O)c2c(ccc3ccc(F)cc32)n1 [3-Amino-9-fluorobenzo(f)quinazolin-1(2H)-one]
7 | 1000 to 300000 nM | CCOc1ccc2ccc3nc(N)[nH]c(=O)c3c2c1 [3-Amino-9-ethoxybenzo(f)quinazolin-1(2H)-one]
8 | < 1000 nM | C#Cc1ccc2ccc3nc(N)[nH]c(=O)c3c2c1 [3-Amino-9-ethynylbenzo(f)quinazolin-1(2H)-one]
9 | < 1000 nM | Nc1nc2ccc3ccc(Cl)cc3c2c(=O)[nH]1 [3-Amino-9-chlorobenzo(f)quinazolin-1(2H)-one]
10 | 1000 to 300000 nM | Nc1nc2ccc3cc(F)ccc3c2c(=O)[nH]1 [3-Amino-8-fluorobenzo(f)quinazolin-1(2H)-one]
11 | < 1000 nM | Nc1nc(O)c2c(ccc3ccc(Br)cc32)n1 [3-Amino-9-bromobenzo(f)quinazolin-1(2H)-one]
12 | 1000 to 300000 nM | Nc1nc2ccc3cc([N+](=O)[O-])c(Br)cc3c2c(=O)[nH]1 [3-Amino-9-bromo-8-nitrobenzo(f)quinazolin-1(2H)-one]

Row | SMILES | IC50
13 | CN(C)S(=O)(=O)c1ccc2ccc3nc(N)[nH]c(=O)c3c2c1 [3-Amino-N,N-dimethyl-1,2-dihydro-1-oxobenzo(f)quinazoline-9-sulfonamide] | 1000 to 300000 nM
14 | Nc1nc2ccc3ccc(NS(=O)(=O)c4ccc(C(=O)O)cc4)cc3c2c(=O)[nH]1 [4-(((3-Amino-1,2-dihydro-1-oxobenzo(f)quinazolin-9-yl)amino)sulfonyl)benzoic acid] | < 1000 nM
15 | Cc1nc2c(c(=O)[nH]1)-c1cc(S(=O)(=O)Cl)ccc1CC2 [1,2,5,6-Tetrahydro-3-methyl-1-oxobenzo(f)quinazoline-9-sulfonylchloride] | 1000 to 300000 nM
16 | Nc1nc2c(c(=O)[nH]1)-c1ccc(S(N)(=O)=O)cc1CC2 [3-Amino-1,2,5,6-tetrahydro-1-oxobenzo(f)quinazoline-8-sulfonamide] | 1000 to 300000 nM
17 | Nc1nc(O)c2c(n1)CCc1cc([N+](=O)[O-])ccc1-2 [3-Amino-5,6-dihydro-8-nitro(f)quinazolin-1(2H)-one] | 1000 to 300000 nM

Same assay, conditions: Table A; vs. mammalian enzymes; read-out: I50

Row | IC50 | SMILES
18 | 1000 to 300000 nM | CC1Cc2nc(N)nc(O)c2-c2ccc(Cl)cc21 (stereo not drawn) [3-Amino-8-chloro-5,6-dihydro-6-methylbenzo(f)quinazolin-1(2H)-one]
19 | 1000 to 300000 nM | Nc1nc(O)c2c(n1)CCc1c(I)cccc1-2 [3-Amino-5,6-dihydro-7-iodobenzo(f)quinazolin-1(2H)-one]
20 | 1000 to 300000 nM | Nc1ccc2c(c1)-c1c(nc(N)[nH]c1=O)CC2 [3,9-Diamino-5,6-dihydrobenzo(f)quinazolin-1(2H)-one]
21 | < 1000 nM | CSc1ccc2ccc3nc(N)nc(O)c3c2c1 [3-Amino-9-(methylthio)benzo(f)quinazolin-1(2H)-one]
22 | 1000 to 300000 nM | Nc1nc(O)c2c(ccc3c(N)cccc32)n1 [3,7-Diaminobenzo(f)quinazolin-1(2H)-one]
23 | 1000 to 300000 nM | Nc1nc2ccc3cc(Cl)ccc3c2c(=O)[nH]1 [3-Amino-8-chlorobenzo(f)quinazolin-1(2H)-one]
24 | 1000 to 300000 nM | Nc1nc(O)c2c(ccc3cccc(N)c32)n1 [3,10-diaminobenzo(f)quinazolin-1(2H)-one]
25 | 1000 to 300000 nM | Cc1cc2nc(N)[nH]c(=O)c2c2ccc(Cl)cc12 [3-Amino-8-chloro-6-methylbenzo(f)quinazolin-1(2H)-one]
26 | < 1000 nM | CC1Cc2nc(N)nc(O)c2-c2cc(Cl)ccc21 (stereo not drawn) [3-Amino-9-chloro-5,6-dihydro-6-methylbenzo(f)quinazolin-1(2H)-one]
27 | 1000 to 300000 nM | Nc1nc2c(c(=O)[nH]1)-c1cccc(F)c1CC2 [3-Amino-7-fluoro-5,6-dihydrobenzo(f)quinazolin-1(2H)-one]
28 | 1000 to 300000 nM | Nc1nc2c(c(=O)[nH]1)-c1cc(O)ccc1CC2 [3-Amino-5,6-dihydro-9-hydroxybenzo(f)quinazolin-1(2H)-one]
29 | 1000 to 300000 nM | Nc1cc(N)c2c(ccc3nc(N)[nH]c(=O)c32)c1 [3,8,10-Triaminobenzo(f)quinazolin-1(2H)-one]
30 | 1000 to 300000 nM | Nc1nc2ccc3cc([N+](=O)[O-])cc([N+](=O)[O-])c3c2c(=O)[nH]1 [3-Amino-8,10-dinitrobenzo(f)quinazolin-1(2H)-one]
31 | 1000 to 300000 nM | CC1(C)Cc2nc(N)nc(O)c2-c2ccccc21 [3-Amino-5,6-dihydro-6,6-dimethylbenzo(f)quinazolin-1(2H)-one]
32 | 1000 to 300000 nM | CCSc1ccc2ccc3nc(N)nc(O)c3c2c1 [3-Amino-9-(ethylthio)benzo(f)quinazolin-1(2H)-one]
33 | 1000 to 300000 nM | Nc1nc2ccc3cccc([N+](=O)[O-])c3c2c(=O)[nH]1 [3-Amino-10-nitrobenzo(f)quinazolin-1(2H)-one]
34 | < 1000 nM | Cc1ccc2c(c1)-c1c(O)nc(N)nc1CC2 [3-Amino-5,6-dihydro-9-methylbenzo(f)quinazolin-1(2H)-one]
35 | 1000 to 300000 nM | Nc1nc(O)c2c(cc(CO)c3ccccc32)n1 [3-Amino-6-(hydroxymethyl)benzo(f)quinazolin-1(2H)-one]
36 | 1000 to 300000 nM | Cc1nc2c(c(=O)[nH]1)-c1cccc(Cl)c1CC2 [7-Chloro-5,6-dihydro-3-methylbenzo(f)quinazolin-1(2H)-one]

Row | SMILES | IC50
37 | Nc1nc2ccc3c(Br)c(N)c(Br)cc3c2c(=O)[nH]1 [3,8-Diamino-7,9-dibromobenzo(f)quinazolin-1(2H)-one] | 1000 to 300000 nM
38 | Nc1nc2c(c(=O)[nH]1)-c1ccc(Cl)cc1CC2 [3-Amino-8-chloro-5,6-dihydrobenzo(f)quinazolin-1(2H)-one] | 1000 to 300000 nM
39 | Cc1cccc2c1CCc1nc(N)[nH]c(=O)c1-2 [3-Amino-5,6-dihydro-7-methylbenzo(f)quinazolin-1(2H)-one] | 1000 to 300000 nM
40 | CC1Cc2nc(N)nc(O)c2-c2ccccc21 (stereo not drawn) [3-Amino-5,6-dihydro-6-methylbenzo(f)quinazolin-1(2H)-one] | 1000 to 300000 nM
41 | Cc1cc(C)c2ccc3nc(N)[nH]c(=O)c3c2c1 [3-Amino-7,9-dimethylbenzo(f)quinazolin-1(2H)-one] | 1000 to 300000 nM
42 | Cc1cc(C)c2c(c1)-c1c(nc(N)[nH]c1=O)CC2 [3-Amino-5,6-dihydro-7,9-dimethylbenzo(f)quinazolin-1(2H)-one] | 1000 to 300000 nM
43 | Nc1nc2c(c(=O)[nH]1)-c1cccc(Br)c1CC2 [3-Amino-7-bromo-5,6-dihydrobenzo(f)quinazolin-1(2H)-one] | 1000 to 300000 nM
44 | Nc1nc(O)c2c(ccc3cc(Br)c([N+](=O)[O-])cc32)n1 [3-Amino-8-bromo-9-nitrobenzo(f)quinazolin-1(2H)-one] | 1000 to 300000 nM
45 | Nc1ccc2c(c1)CCc1nc(N)[nH]c(=O)c1-2 [3,8-Diamino-5,6-dihydrobenzo(f)quinazolin-1(2H)-one] | 1000 to 300000 nM
46 | Cc1cc2nc(N)[nH]c(=O)c2c2ccccc12 [3-Amino-6-methylbenzo(f)quinazolin-1(2H)-one] | 1000 to 300000 nM

What follows are molecules tested on SW480 human colon adenocarcinoma (assay: Tumor cell culture cytotoxicity (MTT dye reduction), SW480). Details: Homo sapiens, SW480, read-out: Cell Culture Cytotoxicity CCCT SW-480, Table F, fully aromatic p-aminobenzoylglutamates.
Protocol: SW480 and WiDr colon adenocarcinomas, MCF-7 breast adenocarcinoma, A427 lung carcinoma and MOLT-4 T-cell leukemia were used for the primary screening of compounds. […] MCF-7, A427 and SW480 were grown in the above medium further supplemented with sodium pyruvate.
Cells are seeded into 96-well plates using a Perkin-Elmer Pro/pette. SW480 and A427 were seeded at 8,000 cells per well, MCF-7 at 10,000, Widr at 7500, and MOLT-4 at 12,500 cells per well, all in 150 µl of medium. Prior to the addition of drugs, cultures were incubated for 24 hrs at 37°. Compounds were added at 2×concentration in 150 l of medium and each concentration was assayed in triplicate. If DMSO or ethanol were used to solubilize compounds, appropriate controls were run if the concentration exceeded 0.01%. Cultures were incubated for 72 hours (96 hours for SW480 and MCF-7) in a 37° humidified incubator at 5% CO2. Inhibition of cell growth was measured using the MTT dye reduction assay.
Cell dilutions for a standard curve were prepared from a 72 hour log-phase culture. Serial dilutions were seeded in triplicate in 96-well plates and incubated at 37 degrees for one hour. MTT (3-(4,5-dimethylthiazol-2-yl)-2,5-diphenyltetrazolium bromide) was dissolved in PBS at 5 mg/ml and sonicated for 30 seconds. Using the Perkin Elmer Pro/pette, 200 μl of medium was removed and 100 μl of MTT added to the wells of the standard curve and test plates. Suspension cultures were spun for 5 min at 1000 rpm before removing medium from the wells. Plates were incubated for 1 hour at 370 on a platform shaker. Following this incubation 100 ml of medium was removed from the wells and 100 μl of DMSO added to each well. The plates were sonicated for approximately 10 seconds to solubilize the precipitated formazan dye. The absorbance of each well was measured using a Titertek Multiscan MC microtiter plate reader at 570 nm with a reference wavelength of 750 nm. Data was collected using a Mariachi Seed-2 and stored and analyzed using an IBM-AT and Lotus 1-2-3 software.

Row | SMILES | IC50
47 | Cc1nc2ccc3ccc(CN(C)c4ccc5c(c4)CN([C@@H](CCC(=O)O)C(=O)O)C5=O)cc3c2c(=O)[nH]1 [(S)-2-(5-(((1,2-Dihydro-3-methyl-1-oxobenzo[f]quinazolin-9-yl)methyl)methylamino)-1-oxo-2-isoindolinyl)glutaric acid] | 500 nM
48 | Nc1nc2ccc3ccc(NS(=O)(=O)c4ccc(C(=O)N[C@@H](CCC(=O)O)C(=O)O)cc4)cc3c2c(=O)[nH]1 [N-(4-(((3-Amino-1,2-dihydro-1-oxobenzo(f)quinazolin-9-yl)amino)sulfonyl)benzoyl)-L-glutamic acid] | > 100000 nM

Same assay, conditions: Homo sapiens, SW480, read-out: Cell Culture Cytotoxicity CCCT SW-480, Table G, dihydrobenzoquinazoline p-aminobenzoylglutamates

Row | SMILES | IC50
49 | Nc1nc2c(c(=O)[nH]1)-c1cc(S(=O)(=O)Nc3ccc(C(=O)N[C@@H](CCC(=O)O)C(=O)O)cc3)c(Br)cc1CC2 [N-(4-(((3-Amino-8-bromo-1,2,5,6-tetrahydro-1-oxobenzo(f)quinazolin-9-yl)sulfonyl)amino)benzoyl)-L-glutamic acid] | > 50000 nM
50 | C#CCN(c1ccc(C(=O)N[C@@H](CCC(=O)O)C(=O)O)cc1)S(=O)(=O)c1ccc2c(c1)CCc1nc(N)[nH]c(=O)c1-2 [N-(4-(((3-Amino-1,2,5,6-tetrahydro-1-oxobenzo(f)quinazolin-8-yl)sulfonyl)(2-propynyl)amino)benzoyl)-L-glutamic acid] | > 50000 nM

Same assay, conditions: Homo sapiens, SW480, read-out: Tumor Cell Culture Cytotoxicity IC50 SW480, Table E, fully aromatic 3-methyl derivatives

Row | SMILES | IC50
51 | Cc1nc2ccc3ccc(CNc4ccc(C#N)cc4)cc3c2c(=O)[nH]1 [4-(((1,2-Dihydro-3-methyl-1-oxobenzo(f)quinazolin-9-yl)methyl)amino)benzonitrile] | 30 nM
52 | Cc1nc2ccc3ccc(CNc4ccc(C(=O)O)cc4)cc3c2c(=O)[nH]1 [4-(((1,2-Dihydro-3-methyl-1-oxobenzo[f]quinazolin-9-yl)methyl)amino)benzoic acid] | 2200 nM
53 | Cc1nc2ccc3ccc(CNc4ccc(C(=O)CC(CCC(=O)O)C(=O)O)cc4)cc3c2c(=O)[nH]1 (racemic) [(RS)-2-(2-(4-(((1,2-Dihydro-3-methyl-1-oxobenzo[f]quinazolin-9-yl)methyl)amino)phenyl)-2-oxoethyl)glutaric acid] | 30 nM
54 | Cc1nc2ccc3ccc(CNc4ccccc4)cc3c2c(=O)[nH]1 [3-Methyl-9-(anilinomethyl)benzo(f)quinazolin-1(2H)-one] | 7000 nM
